Results on one compound are retold here after US5691348A, “Pyridyl imidazole derivatives and processes for the preparation thereof” (Daewoo Electronics Co., Ltd., priority 1994, dated 1997).

In one experiment the test system is unanesthetized dogs. The experiment is described as follows: Maximum blood pressure lowering effect in unanesthetized dogs at different amounts. In kind it is in vivo, dog. The protocol: A number of dog was fed freely in a feeding room and those weighing 7 to 12 kg in good health were selected regardless of their gender.
The test dog was anesthetized with 30 mg/kg of pentobarbital sodium by intravenous injection and the left femoral artery and femoral vein were separated carefully. Silicone catheter, specially prepared and filled with saline treated with heparin (1,000 IU/ml), was cannulated into the blood vessels. After the surgery, the dog was constrained to measure the blood pressure continuously with Gould 2000 physiograph adapted to a Grass P23XL pressure transducer; and the heart rate was monitored with ECG/Biotacho amplifier. The dog was tested at least 2 days after the surgery.
10 mg/kg of furosemide was injected intramuscularly 18 hours (in case of intravenous injection, 2 hours) before the beginning of the test (administration of the test compound) to improve the activity of renin in blood plasma. After the injection of furosemide, neither food nor water was provided. The test compound was suspended in Tween 80 and administered in an amount of 20 mg/kg orally. The blood pressure and heart rate were measured up to 8 hours after the administration of each test compound.
The maximum blood pressure lowering effect of the present compounds and the control compounds were determined in different amounts of administration using the same method as (i) and the results are given in Table 4.

A further experiment relates to angiotensin II receptor. The experiment is described as follows: Angiotensin II receptor binding assay ([3H] angiotensin II). Set-up: species or system rat (Sprague-Dawley adrenal cortex/medulla; Wistar liver). The note with it: 25° C., 60 minutes, test concentration not given. On the procedure: 1. Angiotensin II receptor binding assay
In accordance with the procedure disclosed in Chiu, A. T. et al., Eur. J. Pharm., 157, 13(1981), a ligand marked with a radioisotope was reacted with an angiotensin II receptor and the reactant was filtered with a glass fiber to remove unreacted ligand. After washing the filter, the amount of the remaining isotope was measured to determine the binding activity of the ligand, as described below in detail.
Sprague-Dawley rats and Wistar rats of 250 to 350 g (from The Korea Research Institute of Chemical Technology) were tested and the test procedures were carried out at 4° C., unless otherwise specified. Adrenal gland was separated from the Sprague-Dawley rats (liver, in the case of Wistar rats) into cortex and medulla. The separated adrenal cortex and medulla were washed with a sucrose buffer solution (0.2M sucrose, 1 mM EDTA, 10 mM Tris, Ph 7.2) and homogenized in the same buffer solution by using a Teflon pestle and a Brinkmann homogenizer. The homogenates were centrifuged at 3,000× g for 10 minutes to remove precipitates and further centrifuged at 12,000× g for 13 minutes. The final supernatants were centrifuged at 102,000× g for 1 hour to obtain precipitates, which were washed with a Tris buffer solution (50 mM Tris, 5 mM MgCl2, pH 7.2) and recentrifuged at 102,000× g for 1 hour. The resulting precipitates were immediately processed at the following step or stored at -70° C.
The precipitates were suspended in a Tris buffer solution. The amount of protein was determined by using a Bio-Rad DC protein analyzing kit and the protein concentration was adjusted to the amounts of: 0.2 to 0.3 mg/ml (Sprague-Dawley rat: adrenal cortex), 1.5 to 2.0 mg/ml (Sprague-Dawley rat: adrenal medulla), and 1.5 to 2.0 mg/ml (Wistar rat: liver). To the suspension, bovine serum albumin(BSA) was added to a concentration of 0.25 wt % and the resultant was immediately processed at the following step or stored at -70° C.
50 μl (based on ligand) of [^3 H] angiotensin II (NEN, NET-446) and 10 μl of each of the test compounds with various concentrations were added to the buffer solution (50 mM Tris (pH 7.2), 5 mM MgCl2, 0.25% BSA) to adjust the final volume to be 0.5 ml. 100 μl of the receptor suspension was added thereto and the resulting solution was reacted for 60 minutes while stirring in a water bath at 25° C. 3 ml of cold buffer solution for analysis was added to cease the reaction. The isotope which was bound to the receptor was isolated from the resultant by using Brandel Cell Harvester System with Whatman glass fiber GF/C. After washing the filter, the radioactivity of the filter was determined by using a liquid scintillation counter. Binding inhibition(%) of the test compound was calculated as follows:
Binding Inhibition(%)=[{(T-B)-(S-B)}/(T-B)]×100
wherein T is the radioactivity (cpm) of the reaction product untreated with the test compound, S is the radioactivity (cpm) of the reaction product treated with the test compound, and B is the radioactivity (cpm) of blank test.

Each structure is given as a SMILES string.

Turning to `CCCCc1nc2cc(-c3cccc[n+]3[O-])c(CO)nc2n1Cc1ccc(-c2ccccc2-c2nn[nH]n2)cc1` [Example 1, 2-Butyl-5-hydroxymethyl-6-(1-oxy-pyridin-2-yl)-3-[2'-(1H-tetrazol-5-yl)-biphenyl-4-ylmethyl]-3H-imidazo[4,5-b]pyridine], the “Maximum Blood Pressure Lowering Effect” value in the experiment on unanesthetized dogs (0.3 mg/kg) is listed as -17%; with unanesthetized dogs (1 mg/kg), -25%. For the same compound, the “Binding Inhibition” value with angiotensin II receptor is reported as 85.4%.
